Where “and” joins values, the source holds several entries; their conditions need not be identical. Equal values may be shown once.

The results in this text go back to patent publication US9089572B2, “Inhibitors of p97” (California Institute of Technology, priority 2008, dated 2015).

One assay deals with 293. Put plainly: MTT cell growth assay, 293. It counts as cell-based. To be noted: Homo sapiens, HEK293, 48 or 72 h, read-out: Cell line inhibition of growth GI50 293. As to the method:
(§1) To probe further the effect of compound 2 and related compounds 1, 3, 5, 6 and 7, various concentrations of these compounds were added to 13 different cell lines and incubated for 48 or 72 h. An MTT assay was then performed to evaluate cell growth and survival.

The test system of another assay is DU145. The experiment in a line: MTT cell growth assay, DU145. In kind it is cell-based. To be noted: Homo sapiens, DU-145, 48 or 72 h, read-out: Cell line inhibition of growth GI50 DU145. As to the method:
as §1

The subject of another assay is RPMI8226 cells. The experiment in a line: Accumulation of high molecular weight ubiquitin conjugates (anti-ubiquitin immunoblot), RPMI8226 cells. It counts as cell-based. To be noted: 1 h at 37° C. From the text:
To evaluate whether compound 2 can target p97 activity in cells, we sought to determine whether this compound induces accumulation of high molecular weight ubiquitin conjugates, since it is known that RNAi-mediated knockdown of p97 in mammalian cells has this effect (Wojcik, C. et al. J. Cell Sci. (2004) 117, 281-292). As a positive control for this experiment, the proteasome inhibitor MG132 was used. […] The cells were then harvested, lysed, and centrifuged to generate soluble and insoluble fractions. These fractions were then immunoblotted with anti-ubiquitin antibodies to detect accumulation of high molecular weight conjugates. Blots were also probed with anti-PSTAIRE antibodies as a loading control. […] This effect is particularly pronounced in the insoluble fraction.
To evaluate whether compound 8 can target p97 activity in cells, it was determined whether this compound induces accumulation of high molecular weight ubiquitin conjugates, since it is known that RNAi-mediated knockdown of p97 in mammalian cells has this effect (Wojcik, C. et al. J. Cell Sci. (2004) 117, 281-292). The proteasome inhibitor bortezomib (velcade) was employed as a positive control for this experiment. HeLa (FIG. 25) or RPMI8226 (FIG. 26) cells were treated with Velcade, compound 8, or a combination thereof for 1 h at 37° C. The cells were then harvested and cell lysates were immunoblotted with anti-ubiquitin antibodies to detect accumulation of high molecular weight conjugates. Blots were also probed with anti-PSTAIRE antibodies as a loading control.

For another assay, the system named is RL. Put plainly: MTT cell growth assay, RL. It counts as cell-based. To be noted: Homo sapiens, 48 or 72 h, read-out: Cell line inhibition of growth GI50 RL. On the procedure:
as §1

Another assay deals with Molt4. Put plainly: MTT cell growth assay, Molt4. In kind it is cell-based. To be noted: Homo sapiens, MOLT-4, 48 or 72 h, read-out: Cell line inhibition of growth GI50 Molt4. As to the method:
as §1

The subject of assay [1] is HeLa cell line that stably expresses UbG76V-GFP. Put plainly: Accumulation of UbG76V-GFP in HeLa cells (fluorescence microscopy). In kind it is cell-based. As to the method:
As a control, the same cells were treated with the proteasome inhibitor MG132. In the latter set of experiments, a HeLa cell line that stably expresses UbG76V-GFP was transfected with either wild type (WT), D1 mutant (E305Q), D2 mutant (E578Q) or E305Q, E578Q double mutant (QQ) murine 97-pcDNA4.1 plasmid (0.05 μg/100 μL) in a 96-well plate. After 23 h, the intensity of UbG76V-GFP signal was measured on a Molecular Devices ImageXpress automated fluorescence microscope. […] The direct accumulation of Ub-G76V-GFP caused by compound 2 at 25 μM is 4-fold less than that caused by MG132 at 2 μM. This is likely due to the fact that only fully folded Ub-G76V-GFP should require p97 for degradation by the proteasome.
As a second test of whether compound 8 can inhibit p97 in vivo, it was evaluated whether it can cause accumulation of the UbG76V-GFP reporter. A HeLa cell line that stably expresses UbG76V-GFP was treated with compound 8 for 1 h at 37° C., and was then evaluated by fluorescence microscopy. As a control, the same cells were treated with the proteasome inhibitor MG132. […] The level of GFP fluorescence was quantified in cells treated with compound 8 at different doses and for different periods of time (FIG. 28).

The next assay has as its system HCT116 p53−/−. Put plainly: MTT cell growth assay, HCT116 p53−/−. It counts as cell-based. To be noted: Homo sapiens, HCT-116, 48 or 72 h, read-out: Cell line inhibition of growth GI50 HCT116 p53−/−. As to the method: as §1
In the next assay the target is cysteine 522 of p97 (Mus musculus, UniProt Q01853). The experiment in a line: Tandem mass spectrometry of tryptic peptides of inhibited p97. As to conditions: trypsin digest, HPLC. It counts as binding. As to the method:
To determine if inhibition by compound 2 requires a reactive thiol, the experiment was repeated with p97 except that various nucelophiles were included during the preincubation. […] To evaluate whether compound 2 modifies cysteine 522, inhibited p97 was digested with trypsin and peptides were fractionated by HPLC and analyzed by tandem mass spectrometry.

The target in the next assay is wild type murine p97 (Mus musculus, UniProt Q01853). The experiment in a line: In vitro ATP hydrolysis (malachite green ATPase assay), wild type murine p97. In kind it is biochemical. As to the method: (§2) Compounds were tested for their ability to inhibit the ATPase activity of purified wild type murine p97 and T532C-Cdc48, a mutant of yeast Cdc48 in which the residue analogous to cysteine 522, threonine 532, was converted to cysteine.

The target in the next assay is Yeast Cdc48 (Saccharomyces cerevisiae, UniProt P25694). The experiment in a line: In vitro ATP hydrolysis, yeast Cdc48. In kind it is biochemical. On the procedure: as §2
To determine whether cysteine 522 is necessary for inhibition of p97 by compound 2, a mutant of p97 was constructed in which cysteine 522 was converted to either alanine (C522A-mp97) or threonine (C522T-mp97). The IC50 values of compound 2 were measured the against various enzymes during a 20-minute preincubation (see Table 2). Mutation of cysteine 522 in p97 to either alanine or threonine decreased sensitivity to compound 2 by greater than 100-fold. On the other hand, yeast Cdc48, which normally is quite resistant to compound 2, became nearly 30-fold more sensitive to the compound upon introduction of a cysteine in place of threonine 532.

The test system of assay [2] is HEK293 cells that stably expressed TCR-GFP. Put plainly: Accumulation of ERAD reporter TCR-alpha-GFP. In kind it is cell-based. As to conditions: 2 h at 37° C., fluorescence microscopy. As to the method:
Since p97 has a well-established role in ERAD, it was also determined whether compound 2 affects the accumulation of an ERAD-reporter, TCR-alpha-GFP. HEK293 cells that stably expressed TCR-GFP were treated with MG132 (see FIG. 19), compound 1 or compound 2 (FIG. 20) at the indicated concentrations for 2 h at 37° C. prior to being imaged by fluorescence microscopy to determine TCR-GFP accumulation. […] It was thus concluded that compound 2 inhibits p97 in cells, resulting in the accumulation of both soluble and insoluble high molecular weight ubiquitin conjugates and UPS substrates whose degradation depends upon p97.
HEK293 cells that stably expressed TCR-GFP were treated with the Velcade (FIG. 30) or compound 8 (FIG. 31) at the indicated concentrations for 2 h at 37° C. prior to being imaged by fluorescence microscopy to quantify TCR-GFP accumulation.

wild type murine p97, sequence (Q01853 whole entry): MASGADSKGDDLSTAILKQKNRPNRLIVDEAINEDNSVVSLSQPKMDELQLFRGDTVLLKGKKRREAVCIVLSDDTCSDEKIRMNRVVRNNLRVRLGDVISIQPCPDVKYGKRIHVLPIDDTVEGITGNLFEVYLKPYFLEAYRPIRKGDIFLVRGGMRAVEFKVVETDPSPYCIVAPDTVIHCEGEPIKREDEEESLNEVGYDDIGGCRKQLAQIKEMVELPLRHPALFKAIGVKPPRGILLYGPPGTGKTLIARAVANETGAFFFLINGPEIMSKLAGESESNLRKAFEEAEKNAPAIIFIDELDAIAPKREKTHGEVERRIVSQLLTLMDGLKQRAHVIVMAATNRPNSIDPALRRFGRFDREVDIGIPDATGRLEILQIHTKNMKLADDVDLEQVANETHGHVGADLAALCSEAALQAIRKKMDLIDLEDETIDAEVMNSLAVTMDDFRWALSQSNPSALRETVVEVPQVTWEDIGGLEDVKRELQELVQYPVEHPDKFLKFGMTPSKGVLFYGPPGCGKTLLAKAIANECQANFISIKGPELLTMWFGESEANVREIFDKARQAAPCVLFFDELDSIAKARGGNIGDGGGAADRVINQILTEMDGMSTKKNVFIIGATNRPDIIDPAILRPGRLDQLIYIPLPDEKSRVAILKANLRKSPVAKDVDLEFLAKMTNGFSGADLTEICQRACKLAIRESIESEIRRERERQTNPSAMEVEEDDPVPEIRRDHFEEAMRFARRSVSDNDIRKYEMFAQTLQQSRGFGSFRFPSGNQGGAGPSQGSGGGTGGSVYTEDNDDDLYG
Yeast Cdc48, sequence (P25694 whole entry): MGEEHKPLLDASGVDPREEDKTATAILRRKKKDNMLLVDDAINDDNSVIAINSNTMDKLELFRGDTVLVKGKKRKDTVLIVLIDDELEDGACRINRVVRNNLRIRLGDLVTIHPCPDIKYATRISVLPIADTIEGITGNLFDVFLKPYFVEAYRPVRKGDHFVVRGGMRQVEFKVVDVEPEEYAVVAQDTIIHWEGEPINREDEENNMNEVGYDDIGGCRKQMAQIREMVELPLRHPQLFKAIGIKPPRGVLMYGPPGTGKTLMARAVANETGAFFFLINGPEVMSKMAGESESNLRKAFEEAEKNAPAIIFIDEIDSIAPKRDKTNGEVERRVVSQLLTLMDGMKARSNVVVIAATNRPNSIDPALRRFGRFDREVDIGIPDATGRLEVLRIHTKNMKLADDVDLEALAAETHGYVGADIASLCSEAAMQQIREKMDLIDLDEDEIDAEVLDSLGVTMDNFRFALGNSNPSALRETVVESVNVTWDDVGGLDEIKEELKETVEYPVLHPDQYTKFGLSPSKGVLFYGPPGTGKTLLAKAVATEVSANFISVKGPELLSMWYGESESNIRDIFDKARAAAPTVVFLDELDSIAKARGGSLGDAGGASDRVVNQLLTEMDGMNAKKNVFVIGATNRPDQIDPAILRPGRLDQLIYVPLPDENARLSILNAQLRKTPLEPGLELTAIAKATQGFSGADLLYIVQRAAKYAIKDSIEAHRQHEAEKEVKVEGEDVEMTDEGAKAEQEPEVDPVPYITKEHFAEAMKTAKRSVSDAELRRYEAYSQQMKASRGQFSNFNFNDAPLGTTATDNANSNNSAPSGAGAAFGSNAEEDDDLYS
cysteine 522 of p97, sequence (Q01853 whole entry): as the sequence (Q01853 whole entry) above

Regarding `C=CC(=O)Nc1ncnc2c1c(-c1ccccc1)nn2C(C)(C)C` [Compound 2], the GI50 was 5100 ± 2300 nM in the assay with 293; 3600 ± 1500 nM in the assay on DU145; 2100 ± 1100 nM in the assay on RL; 1100 ± 500 nM with Molt4; 2500 ± 1500 nM in the assay with HCT116 p53−/−. The “accumulation of high molecular weight ubiquitin conjugates, RPMI8226 cells” value with RPMI8226 cells is “caused accumulation of high molecular weight ubiquitin conjugates”. The “accumulation of UbG76V-GFP” value in assay [1] (4 hours at 37° C., fluorescence microscopy) is on record as “caused accumulation of UbG76V-GFP”. Also, the “direct accumulation of Ub-G76V-GFP, less than that caused by MG132 at 2 μM” value in assay [1] (compound at 25 μM vs MG132 at 2 μM) is on record as 4 fold. The “covalent modification of cysteine 522” value at cysteine 522 of p97 is recorded as “formed a covalent adduct on cysteine 522”. Also, the half-inhibitory concentration (IC50) on wild type murine p97 (200 nM p97, 20 min preincubation at 23° C., malachite green, read-out: In vitro ATP Hydrolysis Activity IC50 WT-mP97) was 600 nM and 620 nM; on Yeast Cdc48, 376000 ± 95000 nM. Besides, on wild type murine p97 (cysteine or dithiothreitol in the preincubation buffer), the “inhibitory effect on p97 with nucleophiles in the preincubation” value was “counteracted”. In addition, the “accumulation of TCR-alpha-GFP” value in [2] is given as “substantial TCR-alpha-GFP accumulation”.
